Results from BindingDB's records for doi:10.1016/j.bmcl.2007.04.009 (Bristol-Myers Squibb, 2007).

Molecular target: T1, Fatty-acid amide hydrolase 1 (Homo sapiens, UniProt O00519)
T1 sequence (O00519 whole entry): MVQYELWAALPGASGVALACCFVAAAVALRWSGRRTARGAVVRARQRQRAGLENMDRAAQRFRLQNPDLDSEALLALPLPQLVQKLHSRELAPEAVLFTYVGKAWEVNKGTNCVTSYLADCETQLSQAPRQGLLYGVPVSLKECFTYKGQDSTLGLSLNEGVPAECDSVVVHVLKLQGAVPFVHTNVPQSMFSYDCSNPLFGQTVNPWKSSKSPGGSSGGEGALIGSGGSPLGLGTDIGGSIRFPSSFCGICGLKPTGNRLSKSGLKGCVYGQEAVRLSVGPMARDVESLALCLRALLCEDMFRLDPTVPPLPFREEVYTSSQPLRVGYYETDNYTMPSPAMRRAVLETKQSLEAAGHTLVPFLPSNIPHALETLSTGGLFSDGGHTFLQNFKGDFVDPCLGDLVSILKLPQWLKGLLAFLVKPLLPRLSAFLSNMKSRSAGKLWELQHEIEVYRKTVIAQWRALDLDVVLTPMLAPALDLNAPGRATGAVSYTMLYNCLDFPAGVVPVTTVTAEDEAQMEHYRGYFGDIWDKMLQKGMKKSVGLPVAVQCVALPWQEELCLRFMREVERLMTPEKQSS
Assay: FAAH Inhibition Assay
Settings: pH 9; 22 °C
Description: FAAH Inhibition Assay [3H]Ethanolamine produced from [3H]AEA hydrolysis was used to calculate FAAH activity and was measured by scintillation counting of the aqueous phase after extraction of the incubation mixture. Data were expressed as the percentage of [3H]-ethanolamine formed versus vehicle, after subtraction of the background radioactivity determined in the presence of arachidonyl trifluoromethyl ketone (ATFMK), an inhibitor of FAAH. IC50 values were determined using a four-parameter logistic equation for dose-response curves.

IC50 [nM]	Compound
130	CCOC(=O)C(C)CCCCCn1c(C)nc(-c2ccccc2)c1-c1ccccc1 (racemic) [D, L mixtures]
> 100000	CCOC(=O)C(CCCCCn1c(C)nc(-c2ccccc2)c1-c1ccccc1)C(C)C (racemic) [D, L mixtures]
9900	CCOC(=O)C(CC)CCCCCn1c(C)nc(-c2ccccc2)c1-c1ccccc1 (centres undefined) [D, L mixtures]
31	CCOC(=O)CCCCCCCn1c(CC)nc(-c2ccccc2)c1-c1ccccc1 [ethyl 8-(2-ethyl-4,5-diphenyl-1H-imidazol-1-yl)octanoate]
